Results published in ChEMBL document CHEMBL3046635, “Synthesis and Herbicidal Activity of New Pyrazole-4-carboxamide Derivatives” (J Pestic Sci, 2004).
The source made the active and inactive calls.

How the values were obtained:
Eleocharis acicularis [1] = test: Pre-emergence herbicidal activity against Eleocharis acicularis at 500 g a.i/ha measured after 14 days; type: functional, organism-based
Ammannia multiflora [2] = test: Pre-emergence herbicidal activity against Ammannia multiflora at 100 g a.i/ha measured after 14 days; type: functional, organism-based
Rotala indica [3] = test: Pre-emergence herbicidal activity against Rotala indica at 100 g a.i/ha measured after 14 days; type: functional, organism-based
Echinochloa oryzicola [4] = test: Pre-emergence herbicidal activity against Echinochloa oryzicola at 100 g a.i/ha measured after 14 days; type: functional, organism-based
Cyperus difformis [5] = test: Pre-emergence herbicidal activity against Cyperus difformis at 100 g a.i/ha measured after 14 days; type: functional, organism-based
Oryza sativa [6] = test: Phytotoxicity against Oryza sativa cv. Koshihikari (rice) at 500 g a.i/ha measured after 14 days; type: organism-based; conditions: in vivo, 336 h
[7] = test system: Schoenoplectiella juncoides; test: Pre-emergence herbicidal activity against Schoenoplectiella juncoides assessed as bleaching of stem/leaf parts; type: functional, organism-based
Lindernia procumbens [8] = test: Pre-emergence herbicidal activity against Lindernia procumbens at 500 g a.i/ha measured after 14 days; type: functional, organism-based
Rotala indica [9] = test: Pre-emergence herbicidal activity against Rotala indica at 500 g a.i/ha measured after 14 days; type: functional, organism-based
Lindernia procumbens [10] = test: Pre-emergence herbicidal activity against Lindernia procumbens assessed as bleaching of stem/leaf parts; type: functional, organism-based
Eleocharis acicularis [11] = test: Post-emergence herbicidal activity against Eleocharis acicularis assessed as bleaching of stem/leaf parts; type: functional, organism-based; note: test concentration or dose not given here
Pontederia vaginalis [12] = test: Pre-emergence herbicidal activity against Monochoria vaginalis assessed as bleaching of stem/leaf parts; type: functional, organism-based
Elatine triandra [13] = test: Pre-emergence herbicidal activity against Elatine triandra assessed as bleaching of stem/leaf parts; type: functional, organism-based
Cyperus difformis [14] = test: Pre-emergence herbicidal activity against Cyperus difformis at 500 g a.i/ha measured after 14 days; type: functional, organism-based
Cyperus difformis [15] = test: Pre-emergence herbicidal activity against Cyperus difformis assessed as bleaching of stem/leaf parts; type: functional, organism-based
[16] = test system: Schoenoplectiella juncoides; test: Pre-emergence herbicidal activity against Schoenoplectiella juncoides at 100 g a.i/ha measured after 14 days; type: functional, organism-based
Ammannia multiflora [17] = test: Pre-emergence herbicidal activity against Ammannia multiflora assessed as bleaching of stem/leaf parts; type: functional, organism-based
Eleocharis acicularis [18] = test: Pre-emergence herbicidal activity against Eleocharis acicularis assessed as bleaching of stem/leaf parts; type: functional, organism-based
Pontederia vaginalis [19] = test: Post-emergence herbicidal activity against Monochoria vaginalis assessed as bleaching of stem/leaf parts; type: functional, organism-based; note: test concentration or dose not given here
Echinochloa oryzicola [20] = test: Post-emergence herbicidal activity against Echinochloa oryzicola assessed as bleaching of stem/leaf parts; type: functional, organism-based; note: test concentration or dose not given here
Pontederia vaginalis [21] = test: Pre-emergence herbicidal activity against Monochoria vaginalis at 500 g a.i/ha measured after 14 days; type: functional, organism-based
[22] = test system: Schoenoplectiella juncoides; test: Pre-emergence herbicidal activity against Schoenoplectiella juncoides at 500 g a.i/ha measured after 14 days; type: functional, organism-based
Lindernia procumbens [23] = test: Pre-emergence herbicidal activity against Lindernia procumbens at 100 g a.i/ha measured after 14 days; type: functional, organism-based
Oryza sativa [24] = test: Phytotoxicity against Oryza sativa cv. Koshihikari (rice) at 100 g a.i/ha measured after 14 days; type: organism-based; conditions: in vivo, 336 h
Elatine triandra [25] = test: Post-emergence herbicidal activity against Elatine triandra assessed as bleaching of stem/leaf parts; type: functional, organism-based; note: test concentration or dose not given here
Rotala indica [26] = test: Post-emergence herbicidal activity against Rotala indica assessed as bleaching of stem/leaf parts; type: functional, organism-based; note: test concentration or dose not given here
Echinochloa oryzicola [27] = test: Pre-emergence herbicidal activity against Echinochloa oryzicola assessed as bleaching of stem/leaf parts; type: functional, organism-based
Lindernia procumbens [28] = test: Post-emergence herbicidal activity against Lindernia procumbens assessed as bleaching of stem/leaf parts; type: functional, organism-based; note: test concentration or dose not given here
Elatine triandra [29] = test: Pre-emergence herbicidal activity against Elatine triandra at 500 g a.i/ha measured after 14 days; type: functional, organism-based
[30] = test system: Schoenoplectiella juncoides; test: Post-emergence herbicidal activity against Schoenoplectiella juncoides assessed as bleaching of stem/leaf parts; type: functional, organism-based; note: test concentration or dose not given here
Ammannia multiflora [31] = test: Pre-emergence herbicidal activity against Ammannia multiflora at 500 g a.i/ha measured after 14 days; type: functional, organism-based
Ammannia multiflora [32] = test: Post-emergence herbicidal activity against Ammannia multiflora assessed as bleaching of stem/leaf parts; type: functional, organism-based; note: test concentration or dose not given here
Pontederia vaginalis [33] = test: Pre-emergence herbicidal activity against Monochoria vaginalis at 100 g a.i/ha measured after 14 days; type: functional, organism-based
Elatine triandra [34] = test: Pre-emergence herbicidal activity against Elatine triandra at 100 g a.i/ha measured after 14 days; type: functional, organism-based
Rotala indica [35] = test: Pre-emergence herbicidal activity against Rotala indica assessed as bleaching of stem/leaf parts; type: functional, organism-based
Eleocharis acicularis [36] = test: Pre-emergence herbicidal activity against Eleocharis acicularis at 100 g a.i/ha measured after 14 days; type: functional, organism-based
Echinochloa oryzicola [37] = test: Pre-emergence herbicidal activity against Echinochloa oryzicola at 500 g a.i/ha measured after 14 days; type: functional, organism-based
Cyperus difformis [38] = test: Post-emergence herbicidal activity against Cyperus difformis assessed as bleaching of stem/leaf parts; type: functional, organism-based; note: test concentration or dose not given here

Compound | Activity (Oryza sativa [6]) | Activity [7] | Activity (Lindernia procumbens [8]) | Activity (Rotala indica [9]) | Activity (Lindernia procumbens [10]) | Activity (Eleocharis acicularis [11]) | Activity (Pontederia vaginalis [12]) | Activity (Elatine triandra [13]) | Activity (Cyperus difformis [14]) | Activity (Cyperus difformis [15]) | Activity (Ammannia multiflora [17]) | Activity (Eleocharis acicularis [18]) | Activity (Pontederia vaginalis [19]) | Activity (Echinochloa oryzicola [20]) | Activity (Pontederia vaginalis [21]) | Activity [22] | Activity (Elatine triandra [25]) | Activity (Rotala indica [26]) | Activity (Echinochloa oryzicola [27]) | Activity (Lindernia procumbens [28]) | also measured
Cn1cc(C(=O)NOc2ccccc2Cl)c(OCc2cccc(C(F)(F)F)c2)n1 | Non-toxic | Active | Active | Active | Active | Active | Active | Active | Active | Active | Active | Active | Active | Active | Active | Active | Active | Active | Active | Active | Activity (Eleocharis acicularis [1]): Active; Activity (Ammannia multiflora [2]): Active; Activity (Rotala indica [3]): Active; Activity (Echinochloa oryzicola [4]): inactive; Activity (Cyperus difformis [5]): Active; Activity [16]: inactive; Activity (Lindernia procumbens [23]): Active; Activity (Oryza sativa [24]): Non-toxic; Activity (Elatine triandra [29]): Active; Activity [30]: Active; Activity (Ammannia multiflora [31]): Active; Activity (Ammannia multiflora [32]): Active; Activity (Pontederia vaginalis [33]): Active; Activity (Elatine triandra [34]): Active; Activity (Rotala indica [35]): Active; Activity (Eleocharis acicularis [36]): Active; Activity (Echinochloa oryzicola [37]): Active; Activity (Cyperus difformis [38]): Active
CCCCONC(=O)c1cn(C)nc1OCc1cccc(C(F)(F)F)c1 | Toxic | Active | Active | Active | Active | Active | Active | Active | Active | Active | Active | Active | Active | Active | Active | Active | Active | Active | Active | Active | Activity (Eleocharis acicularis [1]): Active; Activity (Ammannia multiflora [2]): Active; Activity (Rotala indica [3]): Active; Activity (Echinochloa oryzicola [4]): Active; Activity (Cyperus difformis [5]): Active; Activity [16]: Active; Activity (Lindernia procumbens [23]): Active; Activity (Oryza sativa [24]): Non-toxic; Activity (Elatine triandra [29]): Active; Activity [30]: Active; Activity (Ammannia multiflora [31]): Active; Activity (Ammannia multiflora [32]): Active; Activity (Pontederia vaginalis [33]): Active; Activity (Elatine triandra [34]): Active; Activity (Rotala indica [35]): Active; Activity (Eleocharis acicularis [36]): Active; Activity (Echinochloa oryzicola [37]): Active; Activity (Cyperus difformis [38]): Active
CCONC(=O)c1cn(C(F)F)nc1OCc1cccc(C(F)(F)F)c1 | Non-toxic | Active | Active | Active | Active | Active | Active | Active | Active | Active | Active | Active | Active | Active | Active | Active | Active | Active | Active | Active | Activity (Ammannia multiflora [2]): Active; Activity (Rotala indica [3]): Active; Activity (Echinochloa oryzicola [4]): inactive; Activity (Cyperus difformis [5]): Active; Activity [16]: Active; Activity (Lindernia procumbens [23]): Active; Activity (Oryza sativa [24]): Non-toxic; Activity (Elatine triandra [29]): Active; Activity [30]: Active; Activity (Ammannia multiflora [31]): Active; Activity (Ammannia multiflora [32]): Active; Activity (Pontederia vaginalis [33]): Active; Activity (Elatine triandra [34]): Active; Activity (Rotala indica [35]): Active; Activity (Echinochloa oryzicola [37]): Active; Activity (Cyperus difformis [38]): Active
Cn1cc(C(=O)Nc2ccc(C(C)(C)C)cc2)c(OCc2cccc(C(F)(F)F)c2)n1 | Non-toxic | Active | inactive | inactive | Active | Active | Active | Active | inactive | Active | Active | Active | Active | Active | inactive | inactive | Active | Active | Active | Active | Activity (Eleocharis acicularis [1]): inactive; Activity (Elatine triandra [29]): inactive; Activity [30]: Active; Activity (Ammannia multiflora [31]): inactive; Activity (Ammannia multiflora [32]): Active; Activity (Rotala indica [35]): Active; Activity (Echinochloa oryzicola [37]): inactive; Activity (Cyperus difformis [38]): Active
Cn1cc(C(=O)Nc2ccc(C(F)(F)F)cc2)c(OCc2cccc(C(F)(F)F)c2)n1 | Non-toxic | Active | Active | Active | Active | Active | Active | Active | inactive | Active | Active | Active | Active | Active | Active | inactive | Active | Active | Active | Active | Activity (Eleocharis acicularis [1]): Active; Activity (Elatine triandra [29]): Active; Activity [30]: Active; Activity (Ammannia multiflora [31]): Active; Activity (Ammannia multiflora [32]): Active; Activity (Rotala indica [35]): Active; Activity (Echinochloa oryzicola [37]): inactive; Activity (Cyperus difformis [38]): Active
CNC(=O)c1cn(C)nc1OCc1cccc(C(F)(F)F)c1 | Non-toxic | Active | inactive | inactive | Active | Active | Active | Active | inactive | Active | Active | Active | Active | Active | inactive | inactive | Active | Active | Active | Active | Activity (Eleocharis acicularis [1]): inactive; Activity (Elatine triandra [29]): inactive; Activity [30]: Active; Activity (Ammannia multiflora [31]): inactive; Activity (Ammannia multiflora [32]): Active; Activity (Rotala indica [35]): Active; Activity (Echinochloa oryzicola [37]): inactive; Activity (Cyperus difformis [38]): Active
